Here are results for 13 compounds from ChEMBL document CHEMBL5291721, “A preclinical secondary pharmacology resource illuminates target-adverse drug reaction associations of marketed drugs” (Nat Commun, 2023).

Some targets named below: Melanocortin receptor 3 (Homo sapiens, UniProt P41968); D(3) dopamine receptor (Homo sapiens, UniProt P35462); Vasopressin V1a receptor (Homo sapiens, UniProt P37288).
In experiment [1] the target is Sodium-dependent noradrenaline transporter (Homo sapiens, UniProt P23975).
Sequence of Sodium-dependent noradrenaline transporter (P23975 whole entry): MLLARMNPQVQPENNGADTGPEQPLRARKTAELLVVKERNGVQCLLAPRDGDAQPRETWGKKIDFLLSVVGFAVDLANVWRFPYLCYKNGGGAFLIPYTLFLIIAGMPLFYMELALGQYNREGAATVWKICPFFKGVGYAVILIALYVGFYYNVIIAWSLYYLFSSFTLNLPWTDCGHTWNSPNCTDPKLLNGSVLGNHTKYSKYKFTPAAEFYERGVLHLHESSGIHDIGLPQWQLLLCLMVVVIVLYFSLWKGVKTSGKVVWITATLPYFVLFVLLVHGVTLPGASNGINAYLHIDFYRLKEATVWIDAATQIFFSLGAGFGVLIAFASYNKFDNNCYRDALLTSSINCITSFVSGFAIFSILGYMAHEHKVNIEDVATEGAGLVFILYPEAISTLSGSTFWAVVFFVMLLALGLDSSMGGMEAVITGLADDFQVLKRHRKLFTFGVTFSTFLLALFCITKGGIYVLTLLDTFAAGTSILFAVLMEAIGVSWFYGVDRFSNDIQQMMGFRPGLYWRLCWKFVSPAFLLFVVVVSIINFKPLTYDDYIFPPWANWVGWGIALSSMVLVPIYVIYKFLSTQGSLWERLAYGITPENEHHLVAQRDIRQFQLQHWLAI
In a further experiment the target is Cannabinoid receptor 1 (Homo sapiens, UniProt P21554). Type of experiment: functional, cell-based.
Sequence of Cannabinoid receptor 1 (P21554 whole entry): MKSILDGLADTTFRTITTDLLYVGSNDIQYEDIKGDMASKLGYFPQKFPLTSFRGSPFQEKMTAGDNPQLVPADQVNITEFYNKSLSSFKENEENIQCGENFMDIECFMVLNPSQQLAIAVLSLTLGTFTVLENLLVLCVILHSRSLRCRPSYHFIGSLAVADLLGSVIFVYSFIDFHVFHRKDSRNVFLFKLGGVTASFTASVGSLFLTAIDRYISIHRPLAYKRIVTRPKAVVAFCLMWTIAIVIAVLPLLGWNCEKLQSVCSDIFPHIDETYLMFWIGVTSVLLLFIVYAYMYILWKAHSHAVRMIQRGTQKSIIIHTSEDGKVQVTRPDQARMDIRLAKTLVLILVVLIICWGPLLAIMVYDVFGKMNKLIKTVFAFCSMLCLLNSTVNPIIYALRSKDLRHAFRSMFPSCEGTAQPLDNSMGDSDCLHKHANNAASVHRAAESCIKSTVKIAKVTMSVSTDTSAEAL
In experiment [2] the target is Growth hormone secretagogue receptor type 1 (Homo sapiens, UniProt Q92847).
Sequence of Growth hormone secretagogue receptor type 1 (Q92847 whole entry): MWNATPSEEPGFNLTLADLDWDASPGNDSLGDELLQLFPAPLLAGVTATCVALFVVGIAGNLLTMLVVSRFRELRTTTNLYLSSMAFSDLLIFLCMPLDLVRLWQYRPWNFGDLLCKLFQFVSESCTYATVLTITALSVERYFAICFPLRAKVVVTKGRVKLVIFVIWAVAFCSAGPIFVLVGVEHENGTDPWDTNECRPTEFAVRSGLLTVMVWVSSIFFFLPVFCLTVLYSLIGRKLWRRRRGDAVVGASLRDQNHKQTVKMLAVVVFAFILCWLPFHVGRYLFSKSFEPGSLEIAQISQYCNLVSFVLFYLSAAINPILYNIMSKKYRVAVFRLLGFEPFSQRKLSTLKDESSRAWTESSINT
Experiment [3] concerns the target T1, Gastrin/cholecystokinin type B receptor (Homo sapiens, UniProt P32239).
T1 sequence (P32239 whole entry): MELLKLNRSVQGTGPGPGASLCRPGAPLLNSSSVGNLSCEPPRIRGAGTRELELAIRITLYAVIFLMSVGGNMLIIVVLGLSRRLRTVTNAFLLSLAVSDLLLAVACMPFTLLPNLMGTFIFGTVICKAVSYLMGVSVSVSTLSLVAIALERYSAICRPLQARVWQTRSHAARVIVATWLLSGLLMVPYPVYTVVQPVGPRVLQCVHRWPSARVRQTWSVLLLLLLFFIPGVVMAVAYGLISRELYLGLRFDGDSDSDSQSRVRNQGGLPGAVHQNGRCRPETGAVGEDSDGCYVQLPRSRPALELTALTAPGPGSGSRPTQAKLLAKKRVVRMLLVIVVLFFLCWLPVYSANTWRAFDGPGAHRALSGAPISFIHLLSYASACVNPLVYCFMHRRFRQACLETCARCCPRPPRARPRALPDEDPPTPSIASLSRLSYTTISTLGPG

A further experiment addresses T2, Progesterone receptor (Homo sapiens, UniProt P06401).
T2 sequence (P06401 whole entry): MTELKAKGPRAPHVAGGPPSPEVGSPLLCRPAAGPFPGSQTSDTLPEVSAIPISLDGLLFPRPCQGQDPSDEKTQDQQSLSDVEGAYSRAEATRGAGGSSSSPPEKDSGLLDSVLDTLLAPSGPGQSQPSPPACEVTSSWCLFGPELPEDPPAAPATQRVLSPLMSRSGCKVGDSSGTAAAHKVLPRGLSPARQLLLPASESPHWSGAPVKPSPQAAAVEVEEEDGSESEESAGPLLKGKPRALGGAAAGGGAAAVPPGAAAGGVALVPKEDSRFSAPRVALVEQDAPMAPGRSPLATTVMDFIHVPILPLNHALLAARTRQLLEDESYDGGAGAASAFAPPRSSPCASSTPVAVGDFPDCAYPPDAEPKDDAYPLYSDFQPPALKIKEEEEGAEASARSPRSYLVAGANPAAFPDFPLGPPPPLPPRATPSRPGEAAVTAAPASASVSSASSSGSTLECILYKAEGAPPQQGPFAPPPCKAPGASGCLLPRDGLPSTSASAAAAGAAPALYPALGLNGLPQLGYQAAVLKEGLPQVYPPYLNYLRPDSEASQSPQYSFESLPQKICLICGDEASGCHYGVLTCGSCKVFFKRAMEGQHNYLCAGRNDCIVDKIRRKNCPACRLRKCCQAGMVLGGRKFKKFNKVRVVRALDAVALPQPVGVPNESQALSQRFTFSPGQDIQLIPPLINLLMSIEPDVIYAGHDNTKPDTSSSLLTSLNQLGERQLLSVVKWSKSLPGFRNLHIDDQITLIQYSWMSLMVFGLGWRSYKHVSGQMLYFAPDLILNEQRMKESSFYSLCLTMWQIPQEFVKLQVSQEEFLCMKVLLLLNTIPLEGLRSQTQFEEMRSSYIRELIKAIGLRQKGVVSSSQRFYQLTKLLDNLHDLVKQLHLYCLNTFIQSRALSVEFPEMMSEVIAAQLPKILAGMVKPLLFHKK
Type of experiment: functional.

Experiment [4] deals with 5-hydroxytryptamine receptor 2A (Homo sapiens, UniProt P28223). Type of experiment: functional, cell-based.
Sequence of 5-hydroxytryptamine receptor 2A (P28223 whole entry): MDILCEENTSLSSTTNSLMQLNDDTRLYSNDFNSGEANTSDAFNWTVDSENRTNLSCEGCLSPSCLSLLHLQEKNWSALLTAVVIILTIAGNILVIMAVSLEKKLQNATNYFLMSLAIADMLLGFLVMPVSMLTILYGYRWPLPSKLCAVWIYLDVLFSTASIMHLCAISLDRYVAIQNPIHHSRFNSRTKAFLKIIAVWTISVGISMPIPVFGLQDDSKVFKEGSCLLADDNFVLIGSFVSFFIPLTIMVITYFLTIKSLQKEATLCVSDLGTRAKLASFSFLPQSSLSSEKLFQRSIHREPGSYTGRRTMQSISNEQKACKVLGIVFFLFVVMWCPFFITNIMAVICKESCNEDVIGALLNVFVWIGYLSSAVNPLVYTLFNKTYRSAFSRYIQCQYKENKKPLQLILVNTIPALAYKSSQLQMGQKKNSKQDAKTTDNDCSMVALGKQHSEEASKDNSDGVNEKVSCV
Experiment [5] concerns the target 5-hydroxytryptamine receptor 2B (Homo sapiens, UniProt P41595). The experiment is classed as functional, cell-based.
The target in experiment [6] is T3, Type-1 angiotensin II receptor (Homo sapiens, UniProt P30556).
T3 sequence (P30556 whole entry): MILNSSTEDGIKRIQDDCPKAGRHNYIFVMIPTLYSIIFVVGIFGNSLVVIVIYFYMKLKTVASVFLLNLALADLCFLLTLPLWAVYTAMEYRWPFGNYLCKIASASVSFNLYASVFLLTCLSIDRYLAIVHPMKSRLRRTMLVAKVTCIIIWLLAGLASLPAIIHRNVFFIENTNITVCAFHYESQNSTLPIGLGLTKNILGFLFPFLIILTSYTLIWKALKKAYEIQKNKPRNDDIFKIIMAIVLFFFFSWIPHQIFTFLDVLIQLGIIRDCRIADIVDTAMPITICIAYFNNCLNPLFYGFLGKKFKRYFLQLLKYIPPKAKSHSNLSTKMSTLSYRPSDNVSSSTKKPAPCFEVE

The target of another experiment is T4, Thromboxane A2 receptor (Homo sapiens, UniProt P21731).
T4 sequence (P21731 whole entry): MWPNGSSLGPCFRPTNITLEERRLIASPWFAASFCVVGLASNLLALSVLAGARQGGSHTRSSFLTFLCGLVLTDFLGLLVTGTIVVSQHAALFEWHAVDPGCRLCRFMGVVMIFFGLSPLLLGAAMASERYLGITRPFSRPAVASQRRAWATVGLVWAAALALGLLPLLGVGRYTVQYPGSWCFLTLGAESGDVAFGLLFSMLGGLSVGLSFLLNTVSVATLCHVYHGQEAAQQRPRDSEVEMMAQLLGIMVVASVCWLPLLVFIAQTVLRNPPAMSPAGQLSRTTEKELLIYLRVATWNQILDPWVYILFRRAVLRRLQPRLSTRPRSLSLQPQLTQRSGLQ

Where only a bound is given, the exact number is not on record here.
Further: assay procedure not described here.

Sequence of Melanocortin receptor 3 (P41968 whole entry): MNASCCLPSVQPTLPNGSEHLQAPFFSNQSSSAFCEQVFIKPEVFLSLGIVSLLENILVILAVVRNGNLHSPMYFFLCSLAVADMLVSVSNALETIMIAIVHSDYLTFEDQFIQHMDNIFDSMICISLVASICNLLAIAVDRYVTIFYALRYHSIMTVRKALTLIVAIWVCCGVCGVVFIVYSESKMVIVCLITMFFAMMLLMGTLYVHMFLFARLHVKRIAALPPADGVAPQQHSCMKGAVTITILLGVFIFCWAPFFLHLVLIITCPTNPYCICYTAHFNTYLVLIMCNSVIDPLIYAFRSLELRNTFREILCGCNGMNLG
Sequence of 5-hydroxytryptamine receptor 2B (P41595 whole entry): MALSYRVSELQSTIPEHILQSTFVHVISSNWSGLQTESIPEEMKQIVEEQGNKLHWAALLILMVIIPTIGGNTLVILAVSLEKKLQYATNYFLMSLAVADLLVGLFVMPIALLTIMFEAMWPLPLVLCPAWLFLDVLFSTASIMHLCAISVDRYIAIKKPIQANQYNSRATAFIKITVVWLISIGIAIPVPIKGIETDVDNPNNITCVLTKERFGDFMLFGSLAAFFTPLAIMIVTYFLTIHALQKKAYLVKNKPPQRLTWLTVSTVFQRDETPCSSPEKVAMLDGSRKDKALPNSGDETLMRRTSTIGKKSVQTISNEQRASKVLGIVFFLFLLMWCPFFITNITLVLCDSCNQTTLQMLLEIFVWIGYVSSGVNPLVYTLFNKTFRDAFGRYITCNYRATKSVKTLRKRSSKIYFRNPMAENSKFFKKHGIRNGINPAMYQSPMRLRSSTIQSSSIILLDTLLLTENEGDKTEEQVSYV
Sequence of Vasopressin V1a receptor (P37288 whole entry): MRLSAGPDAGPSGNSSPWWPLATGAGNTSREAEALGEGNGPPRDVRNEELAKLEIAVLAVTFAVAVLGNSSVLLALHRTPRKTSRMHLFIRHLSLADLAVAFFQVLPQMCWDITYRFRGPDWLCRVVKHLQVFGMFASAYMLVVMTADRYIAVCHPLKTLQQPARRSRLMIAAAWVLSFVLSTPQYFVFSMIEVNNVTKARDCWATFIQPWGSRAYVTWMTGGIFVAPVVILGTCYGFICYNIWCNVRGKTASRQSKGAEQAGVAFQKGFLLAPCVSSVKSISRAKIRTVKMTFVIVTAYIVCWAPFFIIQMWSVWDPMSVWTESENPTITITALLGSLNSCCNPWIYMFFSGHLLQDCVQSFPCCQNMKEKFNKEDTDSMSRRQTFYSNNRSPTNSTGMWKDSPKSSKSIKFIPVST
Sequence of D(3) dopamine receptor (P35462 whole entry): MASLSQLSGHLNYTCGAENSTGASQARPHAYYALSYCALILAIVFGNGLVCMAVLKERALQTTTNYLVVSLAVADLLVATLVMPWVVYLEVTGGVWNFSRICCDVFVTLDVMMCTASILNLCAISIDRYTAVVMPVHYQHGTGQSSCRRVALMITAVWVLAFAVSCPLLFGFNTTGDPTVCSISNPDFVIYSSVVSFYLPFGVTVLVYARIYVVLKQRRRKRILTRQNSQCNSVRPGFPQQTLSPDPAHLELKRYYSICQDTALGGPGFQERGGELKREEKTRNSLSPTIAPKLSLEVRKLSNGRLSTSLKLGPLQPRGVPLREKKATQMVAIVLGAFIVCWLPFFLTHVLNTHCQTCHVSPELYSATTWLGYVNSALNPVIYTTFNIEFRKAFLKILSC

On to `CCCCCOC(=O)Nc1nc(=O)n([C@@H]2O[C@H](C)[C@@H](O)[C@H]2O)cc1F` [CAPECITABINE], for which the AC50 (in experiment [1]; at Melanocortin receptor 3; on Cannabinoid receptor 1; on D(3) dopamine receptor; in [2]; in experiment [3]) was over 30 µM in each case. Besides, the AC50 (at Progesterone receptor; in [4]; on Vasopressin V1a receptor; in experiment [5]; in [6]) was over 30 µM throughout.
Turning to `CC(C)C(=O)OCC(=O)[C@@]12O[C@H](C3CCCCC3)O[C@@H]1C[C@H]1[C@@H]3CCC4=CC(=O)C=C[C@]4(C)[C@H]3[C@@H](O)C[C@@]12C` [CICLESONIDE], the AC50 in experiment [1] was over 10 µM; at Melanocortin receptor 3, over 10 µM; on Cannabinoid receptor 1 it was over 30 µM; on D(3) dopamine receptor it was over 30 µM; in [2], over 10 µM; at Progesterone receptor, 7.1 µM. Moreover, the AC50 (in [4]; on Vasopressin V1a receptor; in experiment [5]; in experiment [6]; at Thromboxane A2 receptor) was over 10 µM throughout.
In the case of `CCC1(C2=CCCCCC2)C(=O)NC(=O)NC1=O` [HEPTABARBITAL], the AC50 in experiment [1] is over 10 µM; at Melanocortin receptor 3, over 10 µM; on Cannabinoid receptor 1, over 30 µM; on D(3) dopamine receptor, over 30 µM; in experiment [2] it was over 10 µM; on Progesterone receptor it was over 10 µM. The AC50 (in experiment [4]; at Vasopressin V1a receptor; in experiment [5]; in experiment [6]; on Thromboxane A2 receptor) was over 10 µM in each case.
On to `CC(C)[N+](C)(CCC(C(N)=O)(c1ccccc1)c1ccccc1)C(C)C` [ISOPROPAMIDE], for which the AC50 was over 10 µM in experiment [1]; over 10 µM on Melanocortin receptor 3; over 30 µM at D(3) dopamine receptor; over 10 µM in experiment [2]; over 10 µM on Progesterone receptor; over 10 µM in experiment [4]. Moreover, the AC50 (at Vasopressin V1a receptor; in experiment [5]; in experiment [6]; at Thromboxane A2 receptor) was over 10 µM in each case.
As to `COC(=O)C1=C(C)NC(C)=C(C(=O)OC(C)C)C1c1cccc2nonc12` (configuration not stated) [ISRADIPINE], the AC50 in [1] was over 30 µM; at Melanocortin receptor 3, over 30 µM; on D(3) dopamine receptor, over 30 µM; in [2], over 30 µM; in [3], 34.1 µM; at Progesterone receptor, over 30 µM. Moreover, the AC50 was over 10 µM in experiment [4]; over 30 µM on Vasopressin V1a receptor; over 10 µM in experiment [5]; over 10 µM in [6]; 20.1 µM on Thromboxane A2 receptor.
On to `CN1CC[C@]23CCCC[C@H]2[C@H]1Cc1ccc(O)cc13` [LEVORPHANOL], for which the AC50 is over 30 µM in experiment [1]; over 10 µM on Melanocortin receptor 3; over 30 µM at D(3) dopamine receptor; over 10 µM in experiment [2]; over 10 µM at Progesterone receptor; over 10 µM in experiment [4]. Further, the AC50 (on Vasopressin V1a receptor; in experiment [5]; in experiment [6]; on Thromboxane A2 receptor) was over 10 µM throughout.
On to `CC1=CC(=O)c2ccccc2C1=O` [MENADIONE], for which the AC50 was over 10 µM in [1]; over 10 µM on Melanocortin receptor 3; over 30 µM on D(3) dopamine receptor; over 10 µM in experiment [2]; over 30 µM on Progesterone receptor; over 10 µM in [4]. Moreover, the AC50 (on Vasopressin V1a receptor; in experiment [5]; in experiment [6]; at Thromboxane A2 receptor) was over 10 µM throughout.
`CN1CCCN=C1COC(=O)C(O)(c1ccccc1)C1CCCCC1` (configuration not stated) [OXYPHENCYCLIMINE]: the AC50 in experiment [1] is over 30 µM; at Melanocortin receptor 3, over 10 µM; at D(3) dopamine receptor, over 30 µM; in [2] it was over 10 µM; at Progesterone receptor, over 10 µM; in experiment [4], over 10 µM. In addition, the AC50 (on Vasopressin V1a receptor; in [5]; in experiment [6]; on Thromboxane A2 receptor) was over 10 µM each time.
On to `CN1CCC2=C(C1)C(c1ccccc1)c1ccccc12` (configuration not stated) [PHENINDAMINE], for which the AC50 was over 30 µM in experiment [1]; over 10 µM on Melanocortin receptor 3; over 30 µM on D(3) dopamine receptor; over 10 µM in experiment [2]; over 30 µM on Progesterone receptor; over 10 µM in [4]. Also, the AC50 (on Vasopressin V1a receptor; in [5]; in experiment [6]; on Thromboxane A2 receptor) was over 10 µM in each case.
For the compound `CN1C(=O)CC(c2ccccc2)C1=O` (configuration not stated) [PHENSUXIMIDE], the AC50 in experiment [1] is over 10 µM; on Melanocortin receptor 3, over 10 µM; at Cannabinoid receptor 1, over 30 µM; at D(3) dopamine receptor, over 30 µM; in experiment [2], over 10 µM; at Progesterone receptor, over 10 µM. Further, the AC50 (in experiment [4]; at Vasopressin V1a receptor; in [5]; in experiment [6]; at Thromboxane A2 receptor) was over 10 µM in each case.
With `Cc1nc2ccc(CN(C)c3ccc(C(=O)N[C@@H](CCC(=O)O)C(=O)O)s3)cc2c(=O)[nH]1` [RALTITREXED], the AC50 in [1] was over 30 µM; at Melanocortin receptor 3, over 30 µM; on D(3) dopamine receptor, over 30 µM; in [2], over 30 µM; in experiment [3], over 10 µM; on Progesterone receptor, over 30 µM. The AC50 (in experiment [4]; at Vasopressin V1a receptor; in [5]; in experiment [6]; on Thromboxane A2 receptor) was over 30 µM each time.
In the case of `C#CCN[C@@H]1CCc2ccccc21` [RASAGILINE], the AC50 (in experiment [1]; at Melanocortin receptor 3; at D(3) dopamine receptor; in [2]; in experiment [3]; at Progesterone receptor) was over 30 µM throughout. For the same compound, the AC50 (in experiment [4]; on Vasopressin V1a receptor; in experiment [5]; in experiment [6]; at Thromboxane A2 receptor) was over 30 µM in each case.
With `CC(=O)NS(=O)(=O)c1ccc(N)cc1` [SULFACETAMIDE], the AC50 in experiment [1] was over 10 µM; on Melanocortin receptor 3 it was over 10 µM; at D(3) dopamine receptor, over 30 µM; in experiment [2], over 10 µM; at Progesterone receptor it was over 10 µM; in experiment [4], over 10 µM. In addition, the AC50 (at Vasopressin V1a receptor; in [5]; in experiment [6]; at Thromboxane A2 receptor) was over 10 µM throughout.
